{"source": "paper PMC3866116", "about": "(PLoS ONE, 2013)", "key": {"[1]": {"test_system": "HCV subgenomic replicon RNA of genotype 1b strain N (Huh7/Rep-Feo cells)", "experiment": "Luciferase assay in HCV subgenomic replicon cell line Huh7/Rep-Feo", "format": "cell-based, hepatitis C virus", "settings": "Huh7/Rep-Feo, strain N (1b); for EC50: subgenome, 72 h, read-out: EC50, fifty percent effective concentration based on the inhibition of HCV replication", "description": "The Huh7/Rep-Feo cell line, which harbors the subgenomic replicon RNA composed of HCV IRES, the gene of the fusion protein consisting of neomycin phosphotransferase and firefly luciferase, EMCV IRES and a nonstructural gene of genotype 1b strain N in order in Huh7 cell line, was previously established. Thus, the luciferase activity corresponds to the level of HCV RNA replication. The cell line was maintained in Dulbecco's modified Eagle medium containing 10% fetal calf serum and 0.5 mg/mL G418 and cultured in absence of G418 when they were treated with compounds. The Lunet/Con1LUN Sb #26 cell line, which harbors the subgenomic replicon RNA of the Con1 strain (genotype 1b), was described previously. The OR6 cell line, which harbors the full genomic replicon RNA of the O strain (genotype 1b), was described previously. The HCV replicon cell line derived from the genotype 2a strain JFH1 was described previously. The viral RNA derived from the plasmid pJFH1 was transcribed and introduced into Huh7OK1 cells according to the method of Wakita et al.. The virus was amplified by the several times passages. The cells were infected with the virus at a multiplicity of infection (moi) of 1 and then treated with each compound at 24 h post-infection. The culture supernatants were harvested 72 h post-treatment to estimate the viral RNA as described below.\n(§1) The replicon cells were seeded at 2×10^4 cells per well in a 48-well plate 24 h before treatment. […] The resulting cells were harvested 72 h post-treatment and lysed with cell culture lysis reagent (Promega, Madison, WI). The luciferase activity of each cell lysate was estimated using a luciferase assay system (Promega). The resulting luminescence was detected by a Luminescencer-JNR AB-2100 (ATTO, Tokyo, Japan)."}, "[2]": {"experiment": "Cytotoxicity (MTS assay) in Huh7/Rep-Feo replicon cells", "format": "cell-based", "settings": "human, Huh7/Rep-Feo cells, MTS, read-out: CC50, fifty percent cytotoxicity concentration based on the reduction in cell viability", "description": "(§2) The replicon cells were seeded at a density of 1×10^4 cells per well in a 96-well plate and then incubated at 37°C for 24 h. […] Cell viability was measured using a dimethylthiazol carboxymethoxy-phenylsulfophenyl tetrazolium (MTS) assay with a CellTiter 96 aqueous one-solution cell proliferation assay kit (Promega)."}, "[3]": {"test_system": "Huh7/Rep-Feo cells", "experiment": "Cytotoxicity (MTS assay) in Huh7/Rep-Feo replicon cells", "format": "cell-based", "settings": "Huh7/Rep-Feo cells, 72 h, MTS; read-out: CC50, fifty percent cytotoxicity concentration based on the reduction in cell viability", "description": "as §2"}, "[4]": {"test_system": "ISRE-promoter activity", "experiment": "ISRE reporter assay in Huh7 OK1 cells", "format": "cell-based", "settings": "48 h of treatment, interferon alpha 2b as positive control"}, "[5]": {"test_system": "HCV subgenomic replicon RNA of genotype 1b strain Con1", "experiment": "Drug combination analysis (CalcuSyn) in Con1 LUN Sb #26 replicon cells", "format": "cell-based, hepatitis C virus", "settings": "72 h; for effect of combination with compound 10 on inhibition of HCV replication (combination index at EC50, EC75, EC90): CI <0.9 synergy, 0.9 to 1.1 additivity, >1.1 antagonism; for isobologram: location of calculated EC90 plots for combination with compound 10: under additive line = synergy, above = antagonism", "description": "as §1\nThe effects of drug-drug combinations were evaluated by using the Con1 LUN Sb #26 replicon cells, and were analyzed by using the computer software CalcuSyn (Biosoft, Cambridge, United Kingdom). Dose inhibition curves of two different drugs were plotted with each other. In each drug combination, EC90 values of several combinations of two different drugs were plotted as the fractional concentration (FC) of both drugs on the x and y-axes. Additivity indicates the line linked between 1.0 FC value points of both drugs in the absence of each other. Synergy and antagonism are indicated by values plotted under and above, respectively, an additivity line. The explanatory diagram of isobologram is shown in a right end of lower panels of Figure 5A. Combination indexes (CIs) were calculated at the EC50, EC75, and EC90 by using CalcuSyn. A CI value of less than 0.9 indicates synergy. A CI value ranging from 0.9 to 1.1 indicates additivity. A CI value of more than 1.1 indicates antagonism. The explanatory diagram was shown in a right end of lower panels of Figure 5B."}}, "note": "Like-named read-outs stand apart in the source and are kept apart here."}
{"compound": "O=C(O)/C=C/c1ccc(O)c(O)c1", "note": "[Compound 2, caffeic acid]", "values": [{"measurement": "EC50", "setting": "[1]; Hepatitis C virus, Huh-7", "result": "36.6 ± 6.7", "unit": "µM"}, {"measurement": "SI, selectivity index (CC50/EC50)", "setting": "[1]", "result": ">8.7"}, {"measurement": "CC50 at 72 h", "setting": "[2]; Huh7/Rep-Feo replicon cells", "result": "> 320", "unit": "µM"}]}
{"compound": "COc1cc(/C=C/C(=O)O)ccc1O", "note": "[Compound 3, ferulic acid]", "values": [{"measurement": "EC50", "setting": "[1]", "result": "71.9 ± 5.8", "unit": "µM"}, {"measurement": "CC50", "setting": "[3]", "result": "> 320", "unit": "µM"}]}
{"compound": "O=C(C=Cc1ccccc1)OCCc1ccccc1", "note": "[Compound 4, Cinnamic acid phenethyl ester]", "values": [{"measurement": "EC50", "setting": "[1]", "result": "86.1 ± 6.3", "unit": "µM"}, {"measurement": "CC50", "setting": "[3]", "result": "> 320", "unit": "µM"}]}
{"compound": "O=C(/C=C/c1ccc(O)c(O)c1)O[C@@H]1C[C@](O)(C(=O)O)C[C@@H](O)[C@H]1O", "note": "[Compound 5, chlorogenic acid]", "values": [{"measurement": "EC50", "setting": "[1]; Hepatitis C virus, Huh-7", "result": "103 ± 3.4", "unit": "µM"}, {"measurement": "SI, selectivity index (CC50/EC50)", "setting": "[1]", "result": ">3.1"}, {"measurement": "CC50 at 72 h", "setting": "[2]; Huh7/Rep-Feo replicon cells", "result": "> 320", "unit": "µM"}]}
{"compound": "O=C(/C=C/c1ccc(O)c(O)c1)O[C@H](Cc1ccc(O)c(O)c1)C(=O)O", "note": "[Compound 6, Rosmarinic acid]", "values": [{"measurement": "EC50", "setting": "[1]; Hepatitis C virus, Huh-7", "result": "110 ± 1.1", "unit": "µM"}, {"measurement": "SI, selectivity index (CC50/EC50)", "setting": "[1]", "result": ">2.9"}, {"measurement": "effect on ISRE-promoter activities", "setting": "[4]", "result": "no significant effects"}, {"measurement": "CC50 at 72 h", "setting": "[2]", "result": "> 320", "unit": "µM"}]}
{"compound": "COC(=O)/C=C/c1ccc(O)c(O)c1", "note": "[Compound 7, caffeic acid methyl ester]", "values": [{"measurement": "EC50", "setting": "[1]", "result": "28.6 ± 1.2", "unit": "µM"}, {"measurement": "CC50", "setting": "[3]", "result": "122 ± 5", "unit": "µM"}]}
{"compound": "COC(=O)CCc1ccc(O)c(O)c1", "note": "[Compound 12, Dihydrocaffeic acid methyl ester]", "values": [{"measurement": "EC50", "setting": "[1]", "result": "77 ± 1.6", "unit": "µM"}, {"measurement": "CC50", "setting": "[3]", "result": "141 ± 3.4", "unit": "µM"}]}
{"compound": "CCCCCCCCOC(=O)/C=C/c1ccc(O)c(OC)c1", "note": "[Compound 13, 3-O-methylcaffeic acid n-octyl ester]", "values": [{"measurement": "EC50", "setting": "[1]; Hepatitis C virus, Huh-7", "result": "10.2 ± 1.1", "unit": "µM"}, {"measurement": "SI, selectivity index (CC50/EC50)", "setting": "[1]", "result": 5.9}, {"measurement": "CC50 at 72 h", "setting": "[2]; Huh7/Rep-Feo replicon cells", "result": "60.3 ± 1.6", "unit": "µM"}]}
{"compound": "CCCCCCCCOC(=O)/C=C/c1ccc(OC)c(O)c1", "note": "[Compound 14, 4-O-methylcaffeic acid n-octyl ester]", "values": [{"measurement": "EC50", "setting": "[1]; Hepatitis C virus, Huh-7", "result": "19.6 ± 0.8", "unit": "µM"}, {"measurement": "SI, selectivity index (CC50/EC50)", "setting": "[1]", "result": 3}, {"measurement": "CC50 at 72 h", "setting": "[2]; Huh7/Rep-Feo replicon cells", "result": "59.2 ± 1.4", "unit": "µM"}]}
{"compound": "CCCCCCCCOC(=O)C=Cc1cc(O)c(O)c(O)c1", "note": "[Compound 16, 3,4,5-Trihydroxycinnamic acid n-octyl ester]", "values": [{"measurement": "EC50", "setting": "[1]; Hepatitis C virus, Huh-7", "result": "36.3 ± 2.9", "unit": "µM"}, {"measurement": "SI, selectivity index (CC50/EC50)", "setting": "[1]", "result": 1.6}, {"measurement": "CC50 at 72 h", "setting": "[2]; Huh7/Rep-Feo replicon cells", "result": "59.8 ± 6.9", "unit": "µM"}]}
{"compound": "CC(C)(C)C#Cc1cc(N(C(=O)[C@H]2CC[C@H](C)CC2)[C@H]2CC[C@H](O)CC2)c(C(=O)O)s1", "note": "[VX-222]", "values": [{"measurement": "effect of combination with compound 10 on inhibition of HCV replication (combination index at EC50, EC75, EC90)", "setting": "[5]", "result": "additive to synergistic effect"}, {"measurement": "isobologram: location of calculated EC90 plots for combination with compound 10", "setting": "[5]", "result": "under the additive line"}]}
{"compound": "COC(=O)N[C@H](C(=O)N1CCC[C@H]1c1nc(-c2ccc(-c3ccc(-c4c[nH]c([C@@H]5CCCN5C(=O)[C@@H](NC(=O)OC)C(C)C)n4)cc3)cc2)c[nH]1)C(C)C", "note": "[daclatasvir]", "values": [{"measurement": "effect of combination with compound 10 on inhibition of HCV replication (combination index at EC50, EC75, EC90)", "setting": "[5]", "result": "strong synergistic effect"}, {"measurement": "isobologram: location of calculated EC90 plots for combination with compound 10", "setting": "[5]", "result": "under the additive line"}]}
{"compound": "CC(C)(C)OC(=O)N[C@H]1CCCCC/C=C\\[C@@H]2C[C@@]2(C(=O)NS(=O)(=O)C2CC2)NC(=O)[C@@H]2C[C@@H](OC(=O)N3Cc4cccc(F)c4C3)CN2C1=O", "note": "[danoprevir]", "values": [{"measurement": "effect of combination with compound 10 on inhibition of HCV replication (combination index at EC50, EC75, EC90)", "setting": "[5]", "result": "antagonistic to additive effect"}, {"measurement": "isobologram: location of calculated EC90 plots for combination with compound 10", "setting": "[5]", "result": "above the additive line"}]}
{"compound": "CCC[C@H](NC(=O)[C@@H]1[C@H]2CCC[C@H]2CN1C(=O)[C@@H](NC(=O)[C@@H](NC(=O)c1cnccn1)C1CCCCC1)C(C)(C)C)C(=O)C(=O)NC1CC1", "note": "[telaprevir]", "values": [{"measurement": "effect of combination with compound 10 on inhibition of HCV replication (combination index at EC50, EC75, EC90)", "setting": "[5]", "result": "antagonistic effect"}, {"measurement": "isobologram: location of calculated EC90 plots for combination with compound 10", "setting": "[5]", "result": "above the additive line"}]}
